# Test results: PMC7838189, “Natural podophyllotoxin analog 4DPG attenuates EMT and colorectal cancer progression via activation of checkpoint kinase 2” (Cell Death Discovery, 2021)
# Legend:
# Assay type in all cases: cell-based
# HT-29/5-FU-R cells = assay: Western blotting of Chk2 after 4DPG; settings: 48 h, vs vehicle
# From the text: (§1) 4DPG, a podophyllotoxin class of natural product anticancer compound (Supplementary Fig. S2A) has been recently described by our research group for its potent antitumor and anti-metastatic properties against aggressive cancers[31],[32]. Further, 4DPG augments phosphorylation and activation of Chk2 (Thr68) leading to suppression of EMT and invasiveness of p53-defective cancer cells. To investigate the effect of 4DPG on phosphorylation and expression levels of Chk2 in HCT-116/5-FU-R, SW-620/5-FU-R, and HT-29/5-FU-R cells, we treated these cells for 48 h with increasing concentrations of the compound, and whole-cell lysates were subjected to western blotting analysis. […] To determine the effect of 4DPG on the invasion abilities of these 5-FU-R cells, we performed in situ fluorescent gelatin degradation assay following our pre-standardized protocol[31],[37]. In physiological conditions, this assay mimics the extracellular matrix degradation by aggressive tumor cells undergoing invasion–metastasis process.
# We adhered to the previously published protocol for western blotting. To sum up, cells were exposed to the respective treatments (mentioned in figure legends). Post-treatment, cells were lysed with cell lysis buffer, and cell lysates were collected after centrifugation. Bradford assay was performed to quantify the protein concentration. […]
# HCT-116/5-FU-R cells [1] = assay: Immunocytochemistry of Vimentin; settings: 300 nM, 48 h
# From the text: as §1
# Fig. 2 4DPG activates Chk2 and attenuates EMT in 5-FU-R CRC cells. […] G Quantification of the area of degradation through Image J software. n = 3, error bars, mean ± SD; ***P < 0.001. […]
# HCT-116/5-FU-R cells [2] = assay: Matrigel invasion assay; settings: SiChk2 and PV1019 pre-treated conditions, 48 h
# From the text: To examine whether 4DPG-mediated repression of Vimentin and invasiveness is a Chk2-dependent process, we performed genetic silencing of endogenous Chk2 in the 5-FU-R cells using target-specific SiRNAs.
# Fig. 3 Chk2-dependent role of 4DPG in modulating p53 and repressing Vimentin expression in 5-FU-R cells. A Immunocytochemistry results showing the Vimentin expression level in SW-620/5-FU-R cells treated/transfected with scramble, SiChk2, scramble plus 4DPG, SiChk2 plus 4DPG, vehicle, PV1019, 4DPG, and PV1019 plus 4DPG for 48 h. Scale bars: 50 µm. […] C Matrigel invasion assay results showing invaded HCT-116/5-FU-R and SW-620/5-FU-R cells following 48 h of transient transfection with GFP and GFP-Chk2 plasmid construct. Scale bars: 50 µm. D Quantification of the number of invaded cells per field from the above experimental conditions. n = 3, error bars, mean ± SD; *P < 0.05, ***P < 0.001. E Immunocytochemistry results displaying Vimentin expression levels in HCT-116/5-FU-R and SW-620/5-FU-R cells after 48 h of transient transfection with pCDNA3 and/or HA-Chk2 plasmid construct. Scale bars: 50 µm. F Immunoprecipitation with Vimentin or p53 followed by western blotting analysis of p53 in SW-620/5-FU-R cells treated with vehicle and/or 4DPG (300 nM) for 48 h. […]
structure (smiles),measurement,setting,value
"COc1cc([C@@H]2c3cc4c(cc3C[C@H]3COC(=O)[C@@H]32)OCO4)cc(OC)c1O[C@@H]1O[C@H](CO)[C@@H](O)[C@H](O)[C@H]1O [4DPG, 4′-demethyl-deoxypodophyllotoxin glucoside]",increase in p-Chk2 (Thr68) level,HT-29/5-FU-R cells; 300 nM (sub-toxic),7.9 fold
same,expression of Chk2 (total),HT-29/5-FU-R cells,did not alter significantly
same,Vimentin expression level (immunocytochemistry),HCT-116/5-FU-R cells [1],considerable decrease
same,effect of 4DPG to block invasion abilities,HCT-116/5-FU-R cells [2],distinctly reduced
